A short description of the assay: Displacement of [3H]GGpp from GGTase1 expressed in Sf9 cells. (Loss of bound radioactivity is the signal in a displacement assay; it reports binding, not function.)

What is called pIC50 is −log10 of the IC50, conventionally taken in molar units. A higher pIC50 goes with a low IC50. Broadly, the IC50 is the concentration that inhibits the measured activity by half.

On to `Cc1ccc(C(CC(N)=O)NC(=O)CCCOc2c(CCCO)c(-c3cccnc3)nn2-c2ccc(Cl)c(Cl)c2)cc1` (stereo not given), for which the pIC50 is on record as 7.17.
Still for that read-out and setting: the figure for `NC(=O)CC(NC(=O)CCCOc1cc(-c2cccnc2)nn1-c1ccc(Cl)c(Cl)c1)c1ccc(-c2ccccc2)cc1` (stereo not given) is 6.21.
`O=C(O)C[C@H](Cc1c[nH]c2ccccc12)NC(=O)Cn1c(=O)[nH]c2ccccc2c1=O` had an IC50 of more than 100 µM.
In turn, `CSCCCc1c(-c2cccnc2)nn(-c2ccc(Cl)c(Cl)c2)c1OCCCC(=O)NC(CC(N)=O)c1ccc(C)cc1` (stereo not given) had a pIC50 of 7.55.
Still for that read-out and setting: as for `Cc1ccc(CN(CC(N)=O)C(=O)CCCCc2cc(-c3cccnc3)nn2-c2ccc(Cl)c(Cl)c2)cc1`, the figure is 4.53.
Same read-out and setting: as for `Cc1ccc(C(CC(N)=O)NC(=O)CCNCc2cc(-c3cccnc3)nn2-c2ccc(Cl)c(Cl)c2)cc1` (stereo not given), the figure is 6.35; as for `Cc1ccc(C(CO)NC(=O)c2ccc(-c3cc(-c4cccnc4)nn3-c3ccc(Cl)c(Cl)c3)s2)cc1` (stereo not given), 5.11; as for `Cc1ccc(C(NC(N)=O)NC(=O)CCCOc2cc(-c3cccnc3)nn2-c2ccc(Cl)c(Cl)c2)cc1` (stereo not given), 5.4.
On the same count and under the same terms, the figure for `Cc1ccc(C(NC(=O)CCCOc2cc(-c3cccnc3)nn2-c2ccc(Cl)c(Cl)c2)C(=N)N)cc1` (stereo not given) is 5.97.
The compound `CCCOc1ccc(-c2nn(-c3ccccc3)cc2/C=N/NC(=O)CNC(=O)c2cccc(Cl)c2)cc1` yielded a negative-log IC50 (pIC50) of 4.02.
Still for that read-out and setting: as for `CC(C)c1ccc(N(CC(=O)NCc2ccccc2)C(=O)Cn2nnc(-c3ccc(Cl)cc3)n2)cc1`, the figure is 4.19; as for `Cc1ccc(-c2cc(NCNCCCCS)ccc2C(=O)N[C@@H](CCC(C)C)C(=O)O)cc1`, 6.68.
On the same count and under the same terms, as for `Cc1ccc(C(CC(N)=O)NC(=O)CC(=O)Nc2cc(-c3cccnc3)nn2-c2ccc(Cl)c(Cl)c2)cc1` (stereo not given), the figure is 5.58.
For `CCCC(C(=O)NCc1ccccc1)N(Cc1ccccc1Cl)C(=O)Cn1nnc(-c2ccc(Cl)cc2)n1` (stereo not given), the pIC50 is 4.43.
Same read-out and setting: the figure for `Cc1ccc(C(CC(N)=O)NC(=O)CC(=O)CNc2cc(-c3cccnc3)nn2-c2ccc(Cl)c(Cl)c2)cc1` (stereo not given) is 5.23; for `Cc1ccc(C(CC(N)=O)NC(=O)CC(=O)COc2cc(-c3cccnc3)nn2-c2ccc(Cl)c(Cl)c2)cc1` (stereo not given) it is 4.86; for `COc1ccc(OCc2nnc(SCC(=O)Nc3ccc(C(N)=O)cc3)n2CCc2ccccc2)cc1` it is 5.56.
Turning to `CCc1ccc(OCc2nnc(SCC(=O)Nc3ccc(C(N)=O)cc3)n2C(C)c2ccccc2)cc1` (stereo not given), the IC50 (read-out: IC50) amounted to 43 µM.
With `CC[C@@H](C(=O)NCc1ccccc1)N(Cc1ccccc1Cl)C(=O)Cn1nnc(-c2ccc(C)cc2)n1`, the IC50 (read-out: IC50) was found to be 35 µM.
`Cc1ccc(C(=O)N/C(=C/c2ccc(-c3ccc(Cl)c(Cl)c3)o2)C(=O)NCc2ccccc2)cc1` registered a pIC50 of 3.84. Besides, the IC50 (read-out: IC50) was determined as 8 µM.
Turning to `NC(=O)CC(NC(=O)c1ccc(-c2cc(-c3cccnc3)nn2-c2ccc(Cl)c(Cl)c2)cc1)OCc1ccccc1` (stereo not given), the negative-log IC50 (pIC50) is listed as 5.63.
Compound `NC(=O)CC(NC(=O)CCCNc1cc(-c2cccnc2)nn1-c1ccc(Cl)c(Cl)c1)c1cccnc1` (stereo not given) displayed a pIC50 of 6.32.
On the same count and under the same terms, the figure for `CCN(CCCC(=O)NC(CC(N)=O)c1ccc(C)cc1)c1cc(-c2cccnc2)nn1-c1ccc(Cl)c(Cl)c1` (stereo not given) is 5.7; for `Cc1ccc(C(CC(N)=O)NC(=O)CC[C@H](C)Nc2cc(-c3cccnc3)nn2-c2ccc(Cl)c(Cl)c2)cc1` (stereo not given in full) it is 6.23.
For `Cc1ccc(C(=O)N/C(=C\c2ccc(-c3ccc(Cl)c(Cl)c3)o2)C(=O)NCc2ccccc2)cc1`, the pIC50 is on record as 5.56.
Compound `Cc1ccc(C(CC(N)=O)NC(=O)c2ccc(-c3cc(-c4cccnc4)nn3CCc3ccccc3)s2)cc1` (stereo not given) gave a pIC50 of 4.02.
`CCCn1c(COc2ccc(C(C)Cc3ccccc3)cc2)nnc1SCC(=O)Nc1ccc(C(N)=O)cc1` (stereo not given): the pIC50 came out at 4.19. This pIC50 and that of the compound before are within 0.2 log units of each other.
On the same count and under the same terms, the figure for `Cc1ccc([C@@H](CC(N)=O)NC(=O)c2ccc(-c3cc(-c4cccnc4)nn3-c3ccc(Cl)c(Cl)c3)s2)cc1` is 4.68; for `Cc1ccc(C(CC(N)=O)NC(=O)C[C@H](O)COc2cc(-c3cccnc3)nn2-c2ccc(Cl)c(Cl)c2)cc1` (stereo not given in full) it is 5.79.
On the same count and under the same terms, as for `Cc1ccc(C(CC(N)=O)NC(=O)CCCCOc2cc(-c3cccnc3)nn2-c2ccc(Cl)c(Cl)c2)cc1` (stereo not given), the figure is 5.53; as for `Cc1ccc(C(NC(=O)c2ccc(-c3cc(-c4cccnc4)nn3-c3ccc(Cl)c(Cl)c3)s2)C(O)C(N)=O)cc1` (stereo not given), 5.08; as for `Cc1ccc(CCN(CC(N)=O)C(=O)CCCOc2cc(-c3cccnc3)nn2-c2ccc(Cl)c(Cl)c2)cc1`, 5.82.
Same read-out and setting: the figure for `NC(=O)CC(NC(=O)c1ccc(-c2cc(-c3cccnc3)nn2-c2ccc(Cl)c(Cl)c2)s1)OCc1ccccc1` (stereo not given) is 5.57.
On to `Cc1ccc([C@@H](CC(N)=O)NC(=O)c2ccc(-c3cc(-c4cccnc4)nn3-c3ccc(Cl)c(Cl)c3)cc2)cc1`, for which the pIC50 was determined as 3.84.
On the same count and under the same terms, as for `CCN(C(=O)CCCOc1cc(-c2cccnc2)nn1-c1ccc(Cl)c(Cl)c1)C(CC(N)=O)c1ccc(C)cc1` (stereo not given), the figure is 6.27.
In turn, `Cc1ccc(C(CC(N)=O)NC(=O)[C@H]2C[C@H](c3cc(-c4cccnc4)nn3-c3ccc(Cl)c(Cl)c3)C2(C)C)cc1` (stereo not given in full) came in with a pIC50 of 5.94.
The same measure, in the same setting: the figure for `Cc1ccc(C(CC(N)=O)NC(=O)CCCN(CCN2CCOCC2)c2cc(-c3cccnc3)nn2-c2ccc(Cl)c(Cl)c2)cc1` (stereo not given) is 5.09; for `Cc1ccc(C(CC(N)=O)NC(=O)C2CCCN(Cc3cc(-c4cccnc4)nn3-c3ccc(Cl)c(Cl)c3)C2)cc1` (stereo not given) it is 4.3; for `COCCN(CCC(=O)NC(CC(N)=O)c1ccc(C)cc1)Cc1cc(-c2cccnc2)nn1-c1ccc(Cl)c(Cl)c1` (stereo not given) it is 7.
`Cc1ccc(C(CC(N)=O)NC(=O)c2ccc(-c3cc(-c4cccnc4)nn3-c3ccc(Cl)c(Cl)c3)s2)cc1` (stereo not given) had a pIC50 of 4.35.
On the same count and under the same terms, as for `Cc1ccc(C(CC(N)=O)NC(=O)COc2cc(-c3cccnc3)nn2-c2ccc(Cl)c(Cl)c2)cc1` (stereo not given), the figure is 4.43; as for `NC(=O)CN(CC1CCCCC1)C(=O)CCCOc1cc(-c2cccnc2)nn1-c1ccc(Cl)c(Cl)c1`, 5.84.
Take `Cc1ccc(-c2nn(-c3ccccc3)cc2/C=N/NC(=O)C(=O)Nc2cc(Cl)ccc2Cl)cc1`: the pIC50 is 4.43.
In turn, `CCCC[C@H](NC(=O)c1ccc(NCNCCCCS)cc1-c1ccccc1)C(=O)O` returned a negative-log IC50 (pIC50) of 7.14.
The compound `Cc1ccc(C(CC(=O)O)NC(=O)c2ccc(-c3cc(-c4cccnc4)nn3-c3ccc(Cl)c(Cl)c3)s2)cc1` (stereo not given) came in with a negative-log IC50 (pIC50) of 5.73.
`Cc1ccc(C(CC(N)=O)NC(=O)c2ccc(-c3cc(-c4cccnc4)nn3-c3ccc(Cl)c(Cl)c3)cc2)cc1` (stereo not given): the pIC50 worked out at 5.82.
The compound `O=C(Cn1c(=O)n(Cc2c[nH]cn2)c(=O)c2ccccc21)N[C@@H](Cc1ccccc1)C(=O)O` had a pIC50 of 5.77.
For the compound `O=C(O)CNC(=O)[C@H](Cc1c[nH]c2ccccc12)NC(=O)Cn1c(=O)[nH]c2ccccc2c1=O`, the IC50 is more than 100 µM.
`COc1ccccc1-c1nnc(SCC(=O)Nc2ccc(C(N)=O)cc2)n1CCc1ccccc1` gave a pIC50 of 5.56.

These data come from ChEMBL document CHEMBL1137785, “Discovery of geranylgeranyltransferase-I inhibitors with novel scaffolds by the means of quantitative structure-activity relationship modeling, virtual screening, and experimental validation” (J Med Chem, 2009).
